Experimental data as given in patent US6605644B2, “Analgesic regimen” (Ortho-McNeil Pharmaceutical, Inc., priority 1999, dated 2003).
Structures can show the parent of a compound that is named as a salt.

How the values were obtained:
[1] = Example 2: open-label run-in and double-blind study of 10-, 16- or 13-day titration in subjects with chronic pain
[2] = Example 1: randomized double-blind study of 1-, 4- or 10-day titration to 200 mg/day in patients with chronic joint pain; assay type: in vivo; settings: 10-day titration group (50 mg increments every 3 days to 200 mg/day) compared with 1-day and 4-day titration groups, 14 days
Procedure: A total of 465 patients with chronic joint pain were enrolled in the study and randomized into one of four treatment groups for 14 days. Patients continued on their prestudy dose of NSAIDs while concurrently receiving tramadol or placebo. Tramadol groups were titrated at three different rates to achieve the study target dose of 200 mg/day. […] Discontinuation due to any adverse event was similarly analyzed. If the trend was statistically significant, pairwise comparisons were performed to determine the statistical significance between titration rates.
The study protocol was approved by an Institutional Review Board at each study site and informed consent regarding the risks and benefits of participation was obtained for all patients.
Patients with chronic joint pain who had been receiving a maintenance dose (±25%) of NSAID for at least 30 days, and who required additional pain relief, were randomized into three titration groups and a placebo group using a 2:2:2:1 randomization schedule. […]

[3] = cited from earlier work
[4] = cited from earlier work; for peak plasma concentration: mean±standard deviation
[5] = target: μ opioid receptors (Homo sapiens, UniProt P35372); settings: cited from earlier work
Sequence of μ opioid receptors (P35372 whole entry): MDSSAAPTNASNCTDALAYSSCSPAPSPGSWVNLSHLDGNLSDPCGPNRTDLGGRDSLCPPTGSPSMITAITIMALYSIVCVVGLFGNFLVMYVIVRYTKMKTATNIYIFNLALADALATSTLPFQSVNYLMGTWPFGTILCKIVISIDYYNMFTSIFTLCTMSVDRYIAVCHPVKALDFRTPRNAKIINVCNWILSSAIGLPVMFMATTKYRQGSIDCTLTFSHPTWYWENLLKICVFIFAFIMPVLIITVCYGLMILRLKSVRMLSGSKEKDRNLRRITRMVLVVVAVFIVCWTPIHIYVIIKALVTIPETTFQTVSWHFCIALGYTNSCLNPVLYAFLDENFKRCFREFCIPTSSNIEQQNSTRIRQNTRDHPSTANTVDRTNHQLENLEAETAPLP

[6] = double-blind phase, 10-day titration group
[7] = double-blind phase, 13-day titration group
[8] = double-blind phase, 16-day titration group
[9] = single 100 mg oral dose, healthy subjects

SMILES	median time to discontinuation due to any adverse event [1, 6] [days]	median time to discontinuation due to nausea and/or vomiting [1, 6] [days]	mean reduction from baseline PVA scores ([1]; double-blind phase, 10-day titration group (200 mg/day)) [cm]	median time to discontinuation due to any adverse event [1, 7] [days]	median time to discontinuation due to nausea and/or vomiting [1, 7] [days]	mean reduction from baseline PVA scores ([1]; double-blind phase, 13-day titration group (150 mg/day)) [cm]	median time to discontinuation due to any adverse event [1, 8] [days]	median time to discontinuation due to nausea and/or vomiting [1, 8] [days]	mean reduction from baseline PVA scores ([1]; double-blind phase, 16-day titration group (200 mg/day)) [cm]	mean reduction from baseline PVA scores ([1]; open-label/run-in phase, titrated to 200 mg/day over four days) [cm]	advantage in cumulative proportion of subjects who discontinued due to nausea and/or vomiting ([1]; titration to 200 mg/day over 10 days versus over 16 days) [percentage]	discontinuations due to dizziness and/or vertigo, nausea and/or vomiting, and any other adverse event [2]	bound to plasma proteins [3] [%]	absorption after oral administration ([4]; oral administration)	peak plasma concentration [4, 9] [ng/mL]	time of peak plasma concentration after administration [4, 9]	binding affinity to μ receptors [5]	terminal plasma elimination half-life [4, 9] [h]
COc1cccc(C2(O)CCCCC2CN(C)C)c1 (centres unmarked) [tramadol hydrochloride, 2-[(dimethylamino)methyl]-1-(3-methoxyphenyl)cyclohexanol]	9.0	9.0	1.4	6.5	5.5	1.6	6.0	4.0	1.5	2.1	20	fewest discontinuations	20.2	rapidly and almost completely absorbed	308 ± 78	two	low-affinity binding	
CN(C)C[C@H]1CCCC[C@]1(O)c1cccc(O)c1 [mono-O-desmethyl tramadol, mono-O-desmethyltramadol]															55 ± 20	approximately three		7.4 ± 1.4
